Laboratory results as given in US20230405002A1, “COMBINATIONS OF DIACYLGLYCEROL ACYLTRANSFERASE 2 INHIBITORS AND ACETYL-COA CARBOXYLASE INHIBITOR” (Pfizer Inc., priority 2020, published 2023).

Assays:
[1] = tested on: Western diet fed Sprague Dawley rats; assay: Compound A / Compound D study in Western diet fed rats: fed and fasted plasma triglycerides; type: in vivo, rat; details: for increase in fasted plasma TG / reduction of fasted plasma TG: relative to vehicle administered Western diet fed rats; for increase in plasma TG in the fed state / reduction of plasma TG in the fed state: relative to vehicle-administered Western diet fed rats
Experimental: (§1) A randomized, vehicle-controlled, 8-parallel arm study was conducted in male Sprague-Dawley rats (Charles River (Boston, MA)) to obtain circulating and hepatic TG levels. Standard laboratory conditions were used to house 96 rats (˜200 g); they were double housed and kept under 12:12-hour reverse light-dark schedule (lights off at 8:00 AM). Rats were randomized into chow or Western diet groups and dose groups upon arrival and were given a 14-day lead-in period on either standard rat chow or Western diet prior to the start of the study. Standard Laboratory Rodent chow diet, 5053, was from LabDiet (PMI, St Louis, Missouri). Western Diet, D12079Bi, was from Research Diets (New Brunswick, NJ).
(§2) For these studies, vehicle was prepared to make a 0.5% (wt/volume) of methyl cellulose (MC, Sigma Aldrich, 274429) in deionized water.
Fed plasma analytes: Blood for determining fed plasma TG concentrations was collected 2 hours post dose (2 hours into the dark cycle) via lateral tail vein, transferred to BD Microtainer tubes coated with dipotassium ethylenediaminetetraacetic acid (K2EDTA) (PN365974), and centrifuged at 4° C. The resulting plasma samples were then analyzed on a Siemens Chemistry XPT clinical analyzer (Malven, PA) using Siemens triglycerides_2 assay reagents (ref 10335892).
Fasted plasma analytes: Blood for determining fasted plasma TG was collected after a 4 hour fast, 2 hours post-dose (2 hours into the dark cycle) via lateral tail vein, transferred to BD Microtainer tubes coated with K2EDTA (PN365974), and centrifuged at 4° C. The resulting plasma samples were then analyzed on a Siemens Chemistry XPT clinical analyzer (Malven, PA) using Siemens triglycerides 2 assay reagents (ref 10335892).

[2] = tested on: Western diet fed Sprague Dawley rats; assay: Compound A / Compound D study in Western diet fed rats: hepatic triglyceride (steatosis); type: in vivo, rat; details: relative to vehicle administered Western diet fed rats
Experimental: as §1, §2
On the last day of the study (Day 28), rats were sacrificed for tissue collection after a 4 hour fast, 2 hours post-dose: two hours post-dose, blood for determining plasma analytes was collected via lateral tail vein and then the animals were sacrificed by CO2 asphyxiation. Blood was transferred to BD Microtainer tubes coated with K2EDTA (PN365974), centrifuged at 4° C. and the plasma transferred to a 96-well microtitre plate and stored at −20° C. Livers were rapidly removed, freeze-clamped in a Wollenberg clamp pre-cooled in liquid N2 individually wrapped in aluminum foil and subsequently stored at −80° C.
Tissue pulverization: Frozen livers were rapidly pulverized on an aluminum block cooled in liquid N2, ensuring the tissue remained frozen throughout the pulverization. The pulverized tissues were transferred and stored in 7 mL polypropylene conical tubes at −80° C. until analysis.
Extraction for hepatic triglyceride: Approximately 50 to 100 mg of pulverized tissue was added to a 2 mL lysing matrix D tube (MP Bio) containing 800 μL ice cold 1:1 CHCl3:MEOH. Samples were immediately extracted at 4° C. using Qiagen Tissue Lyser II (Qiagen Cat No. 85300) for 4 minutes at 30 Hz. The homogenate was then transferred to 13×100 mm glass tubes and placed on ice. The lysis tubes were then rinsed with 800 μL of 1:1 CHCl3:MeOH, vortexed for 30 seconds and added to the 13×100 mm glass tubes. While on ice, 2.4 ml of 100% CHCl3 was added to all glass vials to bring the ratio of CHCl3:MeOH to 4:2. Samples were then placed in the −20° C. freezer overnight. On the following day, 1.75 mL 1 M KCl H2O was added to bring the ratio to 4:2:1.75 ratio CHCl3:MeOH:H2O. Samples were then vortexed for 30 seconds and centrifuged at 1500 rpm×15 min., at 4° C. After centrifugation, the organic phase was transferred to a fresh 13×100 mm extraction tube, dried down at 37° C. under N2 and re-suspended in 750 μL CHCl3. […]

αSMA and COL1A1 = assay: CDAHFD rat study: hepatic αSMA and COL1A1 gene expression (qPCR); type: in vivo; details: Compound A 5 mg/kg, Compound D 30 mg/kg twice daily, 6 weeks
Excerpt: Standard laboratory conditions were used to house 60 rats (˜200 g); they were double housed and kept under 12:12-hour reverse light-dark schedule (lights off at 8:00 AM). Rats were fed choline deficient and high fat diet (CDAHFD) beginning 6-weeks prior to initiation of the study. […] Animals (n=12) remaining on normal chow throughout the study and administered twice-daily vehicle were used as a control group. Blood samples were collected prior to starting compound administration and 3- and 6-week post compound administration for the assessment of circulating markers. Shearwave elastography (Aixplorer Ultimate imager, Supersoinc imagine) measurements were made at Week −3, Week 0 (prior to 1st dose), Week 3 and Week 6 to assess inflammation and fibrosis progression over time. Histology was assessed following 6-weeks of drug administration which corresponded to 12 weeks on the CDAHFD. Results are provided as an average of animals per each dosing group.
Following the 12-weeks on CDAHFD, the animals were sacrificed by CO2 asphyxiation. The right lateral, medial and left lateral lobes of the liver were harvested. […] A portion of the pulverized liver sample from each animal was processed and analyzed for gene expression markers of fibrogenesis. Rat taqman probes against αSMA and COL1A1 were all assessed using Actb as housekeeping gene on qPCR.

[3] = high dose (Compound A 10 mg/kg QD)
[4] = low dose (Compound A 1 mg/kg QD)
[5] = high dose (Compound A 10 mg/kg QD, Compound D 30 mg/kg BID)
[6] = low dose (Compound A 1 mg/kg QD, Compound D 5 mg/kg BID)

Row | SMILES | increase in fasted plasma TG [1, 3] [fold] | increase in plasma TG in the fed state [1, 3] [fold] | increase in fasted plasma TG [1, 4] [fold] | increase in plasma TG in the fed state [1, 4] [fold] | reduction in steatosis (hepatic triglyceride) [2, 5] [%] | reduction in steatosis (hepatic triglyceride) [2, 6] [%] | hepatic αSMA and COL1A1 gene expression (αSMA and COL1A1) | reduction of plasma TG in the fed state [1, 5] [%] | reduction of fasted plasma TG ([1]; high dose (Compound D 30 mg/kg BID)) [%] | reduction of plasma TG in the fed state [1, 6] [%] | reduction of fasted plasma TG ([1]; low dose (Compound D 5 mg/kg BID)) [%]
1 | COc1cc(C(=O)N2CCC3(CC2)CC(=O)c2c(cnn2C(C)C)C3)cc(-c2ccc(C(=O)O)cc2)n1 [Compound A, 4-(4-(1-isopropyl-7-oxo-1,4,6,7-tetrahydrospiro[indazole-5,4′-piperidine]-1′-carbonyl)-6-methoxypyridin-2-yl)benzoic acid] | 1.7 | 1.3 | 2.4 | 1.7 | 53 | 36 | reduced hepatic αSMA and COL1A1 gene expression |  |  |  | 
2 | CCOc1cccnc1Oc1cncc(-c2ncc(C(=O)N[C@H]3CCOC3)cn2)c1 [Compound D, (S)-2-(5-((3-ethoxypyridin-2-yl)oxy)pyridin-3-yl)-N-(tetrahydrofuran-3-yl)pyrimidine-5-carboxamide] |  |  |  |  | 30 | 25 | reduced hepatic αSMA and COL1A1 gene expression | 63 | 35 | 55 | 20
